Source: US8916542B2, “Chitosan derivatives, compositions and related methods of use” (Synedgen, Inc., priority 2008, dated 2014)
Read-outs that look alike come from different tables or passages of the source.

Tests used:
[1] = tested on: VRE (Vancomycin resistant Enterococcus); assay: Sensitization summary: VRE to Vancomycin; type: cell-based, Enterococcus faecium; conditions: for Antibiotic concentration (MIC) in presence of chitosan-arginine: 24 hour treatment
Description: (§1) By definition, resistance is defined by a “resistance breakpoint” above which a bacterium is considered resistant (and is related to side effects and toxicity).

[2] = tested on: Pseudomonas aeruginosa, PA01; assay: MIC of antibiotics with added chitosan-arginine (live/dead checkerboard); type: cell-based; conditions: for factor of decrease of MIC: addition of 4 μg/ml chitosan-arginine
Protocol: The assay was conducted as follows. In each case, the minimum inhibitory concentration (MIC) in μg/ml was determined for the antibiotic alone against Pseudomonas aeruginosa.

[3] = tested on: MRSA strain MW-2 (ATCC BAA-1707); assay: Checkerboard vCFU assay chitosan-arginine and Oxacillin in PBS; type: cell-based, Staphylococcus aureus; conditions: alone
Protocol: Approximately 10^6 cells/mL were added to each well. Incubation occurred at ambient temperature for 20 h, then bacteria were centrifuged and resuspended in an appropriate growth media. The optical density (OD) was read over the course of 18 h at 37° C. The time (in seconds) to an arbitrary threshold OD of 0.15 was used with reference to a growth curve, to calculate the initial bacterial concentration of bacteria (vCFU).

[4] = tested on: MRSA strain MW-2 (ATCC BAA-1707); assay: Chitosan-arginine/Oxacillin checkerboard growth inhibition assay; type: cell-based, Staphylococcus aureus; conditions: chitosan-arginine 1 μg/mL alone or Oxacillin 0.78 μg/mL alone
Protocol: Approximately 10^5 cells was added to each of the wells. The optical density of the plate was read over the course of 24 hours at 37° C.

[5] = tested on: MRSA; assay: Sensitization summary: MRSA to Oxacillin; type: cell-based, Staphylococcus aureus
Protocol: as §1
(§2) Approximately 10^5 cells were added to each of the wells. […] Optical density readings of the plate were taken, and averaged to determine inhibited samples Inhibition is defined by the final optical density (OD) being less than or equal to ½ the control OD.

[6] = tested on: MRSA strain MW-2 (ATCC BAA-1707); assay: Standard checkerboard assay in Mueller Hinton media, chitosan-arginine and Oxacillin; type: cell-based; conditions: Staphylococcus aureus
Protocol: Bacteria were incubated at 37° C. for the standard 20 hours. MRSA MIC values were obtained by OD595 (optical density). The entire experiment was repeated three times.

[7] = tested on: MMRSA; assay: Sensitization summary: MMRSA to Mupirocin; type: cell-based, Staphylococcus aureus; conditions: Mupirocin resistance breakpoint 8 μg/mL
Protocol: as §1
(§3) The plate was allowed to sit for 24 hours, before being centrifuged at 4000 RPM for 10 minutes, and resuspended in an appropriate enriched growth media (LB or Todd Hewitt Broth). The optical density of the plate was read over the course of 24 hours at 37° C. The optical density readings were used to compute a time to an arbitrary threshold of 0.25, which is correlated using a growth curve for this MMRSA, to virtual colony forming (vCFU) counts.

[8] = tested on: Mupirocin and Methicilin resistant Staphylcoccus aureus (MMRSA, 2-4C strain); assay: Checkerboard time course assay (vCFU) in water; type: cell-based, Staphylococcus aureus
Protocol: as §3

[9] = tested on: A. baumannii; assay: Sensitization summary: A. baumannii to Gentamicin; type: cell-based, Acinetobacter baumannii
Description: as §1

[10] = tested on: K. pneumoniae; assay: Sensitization summary: K. pneumoniae to Gentamicin; type: cell-based, Klebsiella pneumoniae
Protocol: as §1, §2

[11] = tested on: P. aeuriginosa strain PA01 (ATCC BAA-47); assay: Checkerboard assay chitosan-arginine and Tobramycin; type: cell-based; conditions: Pseudomonas aeruginosa, ATCCBAA47, read-out: Tobramycin (MIC), alone; determined alongside each C/A lot
Protocol: Bacteria were incubated at 37° C. for the standard 20 hours.
P. aeuriginosa produces the fluorescent pigment pyocyanin, which can be correlated with bacterial growth.

[12] = 0 μg/ml chitosan-arginine added (antibiotic alone)
[13] = 0.5 μg/ml chitosan-arginine added
[14] = 1 μg/ml chitosan-arginine added
[15] = 2 μg/ml chitosan-arginine added
[16] = with chitosan-arginine 0.125 μg/mL, 24 hour treatment
[17] = 4 μg/ml chitosan-arginine added, * = lowest value measured

CN[C@H](CC(C)C)C(=O)N[C@H]1C(=O)N[C@@H](CC(N)=O)C(=O)N[C@H]2C(=O)N[C@H]3C(=O)N[C@H](C(=O)N[C@H](C(=O)O)c4cc(O)cc(O)c4-c4cc3ccc4O)[C@H](O)c3ccc(c(Cl)c3)Oc3cc2cc(c3O[C@@H]2O[C@H](CO)[C@@H](O)[C@H](O)[C@H]2O[C@H]2C[C@](C)(N)[C@H](O)[C@H](C)O2)Oc2ccc(cc2Cl)[C@H]1O [Vancomycin]
MIC of antibiotic alone against resistant bacteria ([1]; VRE, Vancomycin resistance breakpoint 32 μg/mL): VRE (>32) μg/mL | Antibiotic concentration (MIC) in presence of chitosan-arginine ([1]; with chitosan-arginine 2 μg/mL): 2 µg/mL | Antibiotic concentration (MIC) in presence of chitosan-arginine ([1]; with chitosan-arginine 4 μg/mL): 12.5 µg/mL

O=C(O)c1cn(C2CC2)c2cc(N3CCNCC3)c(F)cc2c1=O [Ciprofloxacin]
MIC of antibiotic [2, 12]: 2 µg/mL | MIC of antibiotic [2, 13]: 1 µg/mL | MIC of antibiotic [2, 14]: 1 µg/mL | MIC of antibiotic [2, 15]: .5 µg/mL | factor of decrease of MIC [2]: ≥ 80

Cc1onc(-c2ccccc2)c1C(=O)N[C@@H]1C(=O)N2[C@@H]1SC(C)(C)[C@@H]2C(=O)O [Oxacillin]
bactericidal concentration [3]: > 6.25 µg/mL | effect on growth of the bacteria, agent alone [4]: Neither antimicrobial alone had a significant an effect | MIC of antibiotic alone against resistant bacteria ([5]; MRSA, Oxacillin resistance breakpoint 4 μg/mL): MRSA (>25) μg/mL | Antibiotic concentration (MIC) in presence of chitosan-arginine ([5]; with chitosan-arginine 4 μg/mL, 24 hour treatment): 0.2 µg/mL | MIC ([6]; read-out: MIC of Oxa alone): 4 µg/mL | MIC ([6]; read-out: MIC of Oxa with C/A): 1 µg/mL

C/C(=C\C(=O)OCCCCCCCCC(=O)O)C[C@@H]1OC[C@H](C[C@@H]2O[C@H]2[C@@H](C)[C@H](C)O)[C@@H](O)[C@H]1O [Mupirocin]
MIC of antibiotic alone against resistant bacteria [7]: MMRSA (>64) μg/mL | effect of mupirocin alone on MMRSA ([8]; 1 μg/mL): completely ineffective | antibacterial effectiveness of Mupirocin alone ([8]; doses below 64 to 128 μg/mL): ineffective | mupirocin concentration at which MMRSA is sensitive ([8]; mupirocin alone, 24 hours in water): 128 µg/mL | lowest Mupirocin dose to which MMRSA is sensitized ([8]; with 4 μg/mL chitosan-arginine): 8 µg/mL

Gentamicin
MIC of antibiotic alone against resistant bacteria ([9]; A. baumannii, Gentamicin resistance breakpoint 64 μg/mL): A. baumannii (64) μg/mL | Antibiotic concentration (MIC) in presence of chitosan-arginine [9, 16]: 16 µg/mL | MIC of antibiotic alone against resistant bacteria ([10]; K. pneumoniae, Gentamicin resistance breakpoint 64 μg/mL): K. pneumoniae (64) μg/mL | Antibiotic concentration (MIC) in presence of chitosan-arginine [10, 16]: 16 µg/mL

Neomycin
MIC of antibiotic [2, 12]: 8 µg/mL | MIC of antibiotic [2, 13]: 4 µg/mL | MIC of antibiotic [2, 14]: 2 µg/mL | MIC of antibiotic [2, 15]: 1 µg/mL | MIC of antibiotic [2, 17]: 0.5 µg/mL | factor of decrease of MIC [2]: 16

NC[C@H]1O[C@H](O[C@H]2[C@H](O)[C@@H](O[C@H]3O[C@H](CO)[C@@H](O)[C@H](N)[C@H]3O)[C@H](N)C[C@@H]2N)[C@H](N)C[C@@H]1O [Tobramycin]
MIC [11]: 0.5 µg/mL

[Ag] [Silver]
MIC of antibiotic [2, 12]: 0.042 µg/mL | MIC of antibiotic [2, 13]: 0.021 µg/mL | MIC of antibiotic [2, 14]: 0.021 µg/mL | MIC of antibiotic [2, 15]: 0.005 µg/mL | MIC of antibiotic [2, 17]: ≤ 0.001* μg/ml | factor of decrease of MIC [2]: ≥ 40

CO[C@H]1/C=C/O[C@@]2(C)Oc3c(C)c(O)c4c(O)c(c(/C=N/N5CCN(C)CC5)c(O)c4c3C2=O)NC(=O)/C(C)=C\C=C\[C@H](C)[C@H](O)[C@@H](C)[C@@H](O)[C@@H](C)[C@H](OC(C)=O)[C@@H]1C [Rifampicin]
MIC of antibiotic [2, 12]: 8 µg/mL | MIC of antibiotic [2, 13]: 4 µg/mL | MIC of antibiotic [2, 14]: 2 µg/mL | MIC of antibiotic [2, 15]: 1 µg/mL | MIC of antibiotic [2, 17]: 0.5 µg/mL | factor of decrease of MIC [2]: 16
